Laboratory results published in patent US5587360A, “Platelet adhesion inhibitor” (Merck Patent GmbH, priority 1990, dated 1996).
Read-outs that look alike come from different tables or passages of the source.

Tested on: leech-derived protein according to the invention
Assay: Effect of typical inhibitors on the activity of the protein
Assay type: biochemical, Hirudo medicinalis
Conditions: for IC50: read-out: IC50 (mM), dose of inhibitor which gave half maximal inhibition
Experimental: Any hydrolysis of the chromogenic substrates. S2251, S2586, S2288. […] A preferred assay method is described below. Preparations for assay are reconstituated or diluted in assay buffer: 50 mM Tris, 0.2M NaCl, 0.05% casein (Hammerstan grade from British Drug Houses), 0.1% Brij 35, 0.01% sodium azide, pH8.0. Activity is det.ermined using modification of the AZOCCLL assay adapted to microtitre plates. Aliquots (100 microliters) of protein. in a range of dilutions in assay buffer, are incubated with a suspension of washed substrate (100 microliters: 10mg/ml) at 37 degrees Celsius. At the end of the incubation period which varies according to the experiment and dose of protein, the undigested substrate is sedimented by centrifugation and aliquots (100 microliters) of the supernatants transferred to another plate in which the absorbance at 560 nm is measured. Protein activity can be expressed as milliequivalent units of bacterial collagenase (Clostridium histolyticum) assayed at the same time under the same conditions.
The effect of some typical inhibitors was examined. The protein (5000 units/ml of a preparation of specific activity 10,000-20,000 units/mg) was incubated with DTT, cysteine, EDTA and leech anti-chymotrypsin in a range of concentrations with substrate. […] The effects of orthophenanthroline (2 mM): TIMP (tissue inhibitor of metallo-proteinase) 0.4 micrograms with APMA (0.5 mM) and with pre-incubation for 15 min): SBTI (7.5 micrograms and 30 min pre-incubation): and PMSF ([…] with 30 min pre-incubation) were also studied.

[1] = protein 5000 units/ml, o-phenanthroline 2 mM, TIMP 0.4 micrograms, SBTI 7.5 micrograms, PMSF single dose only

O[C@H](CS)[C@H](O)CS (racemic) [Dithiothreitol] was tested, and the “effect of inhibitor on activity of the protein” value (“effect of inhibitor” below) (protein 5000 units/ml) was “destroyed activity” and the IC50 [1] was 0.2 mM.

For O=S(=O)(F)Cc1ccccc1 [PMSF], the “effect of inhibitor” value (protein 5000 units/ml) was “did not inhibit activity” and the “IC50 (mM), dose of inhibitor which gave half maximal inhibition” value [1] was “No effect”.

With N[C@@H](CS)C(=O)O [Cysteine] the “effect of inhibitor” value (protein 5000 units/ml) was “destroyed activity” and the IC50 [1] was 3 mM.

For c1cnc2c(c1)ccc1cccnc12 [o-Phenanthroline], the “effect of inhibitor” value (protein 5000 units/ml) was “did not inhibit activity” and the “IC50 (mM), dose of inhibitor which gave half maximal inhibition” value [1] was “No effect”.

For [N-]=[N+]=[N-] [sodium azide], the “effect of inhibitor” value (protein 5000 units/ml) was “did not inhibit activity”.

O=C(O)CN(CCN(CC(=O)O)CC(=O)O)CC(=O)O [EDTA] was tested, and the “effect of inhibitor” value was “destroyed activity” and the IC50 was 2 mM.

B1: SBTI: soybean trypsin inhibitor (protein, UniProt P01070 25-205, looked up)
Trypsin inhibitor A: DFVLDNEGNPLENGGTYYILSDITAFGGIRAAPTGNERCPLTVVQSRNELDKGIGTIISSPYRIRFIAEGHPLSLKFDSFAVIMLCVGIPTEWSVVEDLPEGPAVKIGENKDAMDGWFRLERVSDDEFNNYKLVFCPQQAEDDKCGDIGISIDHDDGTRRLVVSKNKPLVVQFQKLDKESL
For B1, the “effect of inhibitor” value (protein 5000 units/ml) was “did not inhibit activity” and the “IC50 (mM), dose of inhibitor which gave half maximal inhibition” value [1] was “No effect”.
